Test results reported in article PMC6112376, “Comprehensive Analyses and Prioritization of Tox21 10K Chemicals Affecting Mitochondrial Function by in-Depth Mechanistic Studies” (Environmental Health Perspectives, 2018).
Where a name gives a salt, the structure may show the parent alone. Read-outs that look alike come from different tables or passages of the source.

Columns and labels:
[1] = system: rat primary hepatocytes
[2] = system: HepG2 cells; conditions: cited from earlier work; for IC50: read-out: MMP assays IC50 (µM) qHTS-HepG2
[3] = system: HepG2 cells; assay: cells; conditions: Homo sapiens; for IC50: HepG2, read-out: MMP assays IC50 (µM) HepG2; for Emax: HepG2, read-out: MMP assays efficacy (%) HepG2
[4] = system: rat primary hepatocytes; assay: MMP assay in rat primary hepatocytes; conditions: for IC50: Rattus norvegicus, Hepatocyte, read-out: MMP assays IC50 (µM) Rat Hepatocytes

| Compound | MMP assays efficacy (%) Rat Hepatocytes [1] | MMP assays efficacy (%) qHTS-HepG2 [2] [%] | IC50 [2] [µM] | IC50 [3] [µM] | Emax [3] [%] | IC50 [4] [µM] | MMP assays IC50 (µM) Rat Hepatocytes [4] |
| --- | --- | --- | --- | --- | --- | --- | --- |
| Nc1ccc(Cc2ccc(N)c(Cl)c2)cc1Cl [4,4'-Methylenebis(2-chloroaniline)] | -52±15% | -98±24 | 49.1 ± 17 | 39.8 | 87 | 56.2 | – |
| CC(C)(C)CC(C)(C)c1ccc(O)cc1 [4-(1,1,3,3-Tetramethylbutyl)phenol] | inactive | -103±8 | 4.25 ± 0.92 | 4.89 | 100 | – | inactive |
| CCC(C)(C)c1ccc(O)cc1 [4-(2-Methylbutan-2-yl)phenol] | inactive | -95±13 | 22.7 ± 3.07 | 35.5 | 96 | – | inactive |
| CCC(C)c1ccc(O)cc1 (centres unmarked) [4-(Butan-2-yl)phenol] | inactive | -101±7 | 32 ± 3.64 | 35.5 | 77 | – | inactive |
| Nc1ccc(Cl)cc1N [4-Chloro-1,2-diaminobenzene] | -88±17% | -94±12 | 2.38 ± 1.6 | 2 | 90 | 11 ± 4.37 | – |
| O=C=Nc1ccc(Cl)cc1 [4-Chlorophenyl isocyanate] | -98±7% | -110±18 | 0.27 ± 0.11 | 0.71 | 99 | 1.56 ± 0.39 | – |
| CCCCCCc1ccc(-c2ccc(C#N)cc2)cc1 [4-Hexyl-4'-cyanobiphenyl] | -56±24% | -109±6 | 42.5 ± 15.4 | 31.6 | 59 | 17.5 ± 15.6 | – |
| CC(=O)CC(c1ccc([N+](=O)[O-])cc1)c1c(O)c2ccccc2oc1=O (centres unmarked) [Acenocoumarol] | -64±56% | -96±12 | 8.36 ± 1.07 | 9.32 | 89 | 4.59 ± 1.82 | – |
| CC[C@@]1(O)C[C@H](O[C@H]2C[C@H](N(C)C)[C@H](O[C@H]3C[C@H](O)[C@H](O[C@H]4CCC(=O)[C@H](C)O4)[C@H](C)O3)[C@H](C)O2)c2c(cc3c(c2O)C(=O)c2c(O)cccc2C3=O)[C@H]1C(=O)OC [Aclarubicin hydrochloride] | -49±12% | -70±15 | 3.15 ± 2.82 | 2.45 | 39 | 6.89 ± 9.73 | – |
| CCCSc1ccc2nc(NC(=O)OC)[nH]c2c1 [Albendazole] | -85±78% | -78±15 | 9.35 ± 1.83 | 19.4 | 107 | 15.5 ± 21.7 | – |
| ClC1=C(Cl)C2(Cl)C3C4C=CC(C4)C3C1(Cl)C2(Cl)Cl (centres unmarked) [Aldrin] | inactive | -86±11 | 31.2 ± 7.21 | 39.8 | 106 | – | inactive |
| O=C1c2ccccc2C(=O)c2c1ccc(O)c2O [Alizarin] | -80±8% | -101±8 | 11 ± 1.41 | 13.8 | 94 | 11.9 ± 7.79 | – |
| C=CC[C@]1(O)CC[C@H]2[C@@H]3CCC4=CCCC[C@@H]4[C@H]3CC[C@@]21C [Allylestrenol] | inactive | -52±13 | 12.8 ± 3.68 | 31.6 | 97 | – | inactive |
| N=C(N)NN=C1C=CC(=NNC(N)=S)C=C1 [Ambazone] | -52±11% | -98±7 | 5.6 ± 3.23 | 3.98 | 61 | 1.98 ± 2.22 | – |
| COc1cc(NS(C)(=O)=O)ccc1Nc1c2ccccc2nc2ccccc12 [Amsacrine hydrochloride] | -110±40% | -75±13 | 10.3 ± 2.45 | 56.2 | 110 | 37.6 ± 3.06 | – |
| CCCCCc1ccc(C)cc1O [Amylmetacresol] | inactive | -109±16 | 11.2 ± 0.65 | – | 115 | – | inactive |
| O=c1cc(-c2ccc(O)cc2)oc2cc(O)cc(O)c12 [Apigenin] | -66±35% | -98±2 | 1.61 | 3.55 | 88 | 28.9 ± 9.26 | – |
| O=C(Nc1cccc(Cl)c1)OCC#CCCl [Barban] | -68±37% | -116±9 | 22.5 ± 4.1 | 25.1 | 87 | 36 ± 7.53 | – |
| COC(=O)[C@]12CCC(C)(C)C[C@H]1[C@H]1C(=O)C=C3[C@@]4(C)C=C(C#N)C(=O)C(C)(C)[C@@H]4CC[C@@]3(C)[C@]1(C)CC2 [Bardoxolone methyl] | -90±57% | -114±5 | 5.11 ± 1.27 | 17.3 | 122 | 17.4 ± 2 | – |
| CCc1oc2ccccc2c1C(=O)c1cc(Br)c(O)c(Br)c1 [Benzbromarone] | -82±50% | -138±3 | 7.22 ± 1.24 | 13.8 | 107 | 4.91 ± 1.79 | – |
| Nc1ccc(-c2ccc(N)cc2)cc1 [Benzidine] | -69±64% | -59±14 | 24.3 ± 4.5 | 15.8 | 79 | 2.51 ± 3.54 | – |
| COc1ccc2cc3[n+](cc2c1OC)CCc1cc2c(cc1-3)OCO2 [Berberine chloride] | -101±32% | -95±8 | 2.03 ± 1.29 | 3.46 | 92 | 6.03 ± 3.78 | – |
| CC(=O)Oc1ccc(C(c2ccc(OC(C)=O)cc2)c2ccccn2)cc1 [Bisacodyl] | -73±12% | -67±5 | 14.8 ± 3.63 | 7.74 | 95 | 18.4 ± 13 | – |
| CCC(C)(c1ccc(O)cc1)c1ccc(O)cc1 [Bisphenol B] | -79±17% | -117±22 | 10.7 ± 2.48 | 10 | 122 | 21.8 ± 8.6 | – |
| Oc1ccc(C2(c3ccc(O)cc3)CCCCC2)cc1 [Bisphenol Z] | -34±12% | -101±12 | 22.2 ± 5.51 | 19.9 | 113 | 14.7 ± 15.1 | – |
| Oc1c(Cl)cc(Cl)cc1Sc1cc(Cl)cc(Cl)c1O [Bithionol] | -109±25% | -97±9 | 0.66 ± 0.52 | 0.97 | 92 | 2.47 ± 1.39 | – |
